Measured values: the supplement of paper PMC11208160

Assay: recombinant barcode read abundance after kanamycin selection (control-corrected) (log10(CPM+1)); higher = more efficient recombination; sequences stand for … in AGTGCAGAGAAAATCGGCCAGTTTTCTCTGCCTGCAGTCCGCATGCCGT…AGATTTATGCAGCGGACTGCCTTTCTCCCAAAGTGATAAACCGGACAGTATCATGGACCGGTTTTCCCGGTAATCCGTATTTGCAAGGTTGGTTTCACT; site = the 11-nt target
In short: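 Recombination efficiency in this pooled E. coli screen uses counts per million of barcodes at recombinant junctions, averaged and corrected against the control. The reported form is log10(CPM+1). Two replicates were plated on chloramphenicol/ampicillin LB agar as control and two on chloramphenicol/ampicillin/kanamycin with 0.1 mM IPTG.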
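Further: IS621 recombinase and bridge RNA in Escherichia coli cells.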

Sequence | recombinant barcode read abundance (log10)
CAGCTACCTTGGGTTCTAACCTGTTGCCT (site CAGCTACCTAG) | 1.73
CAGCTACCTTGGGTTCTAACCTGTTGCCT (site CCGCTACCTAG) | 0.334
CAGCTACCTTGGGTTCTAACCTGTTGCCT (site CGGCTACCTAG) | 0.226
CAGCTACCTTGGGTTCTAACCTGTTGCCT (site CTGCTACCTAG) | 0.585
CAGGACTCTTGGGTTCTAACCTGTTGCTT (site CAGCACTCTTA) | 0.0832
CAGGACTCTTGGGTTCTAACCTGTTGCTT (site CAGGACTCTAA) | 2.85
CAGGCGGCTTGGGTTCTAACCTGTTGCCT (site CAGGCGACTAG) | 0.117
CAGGCGGCTTGGGTTCTAACCTGTTGCCT (site CAGGCGCCTAG) | 0.254
CAGGCGGCTTGGGTTCTAACCTGTTGCCT (site CAGGCGGCTAG) | 0.829
CAGGCGGCTTGGGTTCTAACCTGTTGCCT (site CAGGCGTCTAG) | 0.0685
CAGGGTCCTTGGGTTCTAACCTGTTGCGG (site CAGGGTCCTCC) | 3.55
CAGGGTCCTTGGGTTCTAACCTGTTGCGG (site TAGGGTTCTCC) | 0.0367
CAGTCAGCTTGGGTTCTAACCTGTTGCCT (site CAGTCAGCTAG) | 1.16
CAGTCAGCTTGGGTTCTAACCTGTTGCCT (site GTAAGGACTCC) | 0.0866
CAGTCCTCTTGGGTTCTAACCTGTTGCTG (site CAGTCCTCTCA) | 2.23
CAGTCCTCTTGGGTTCTAACCTGTTGCTG (site CCGTCCTCTCA) | 0.0321
CAGTGAACTTGGGTTCTAACCTGTTGCCT (site CAGTGAACTAG) | 1.55
CAGTGAACTTGGGTTCTAACCTGTTGCCT (site CCGTGAACTAG) | 0.181
CAGTGAACTTGGGTTCTAACCTGTTGCCT (site CGGTGAACTAG) | 0.0595
CAGTGAACTTGGGTTCTAACCTGTTGCCT (site CTGTGAACTAG) | 0.0273
CAGTGGACTTGGGTTCTAACCTGTTGCCT (site CAATGGACTAG) | 0.961
CAGTGGACTTGGGTTCTAACCTGTTGCCT (site CACTGGACTAG) | 0.101

Sequence | recombinant barcode read abundance (log10)
CAGTGGACTTGGGTTCTAACCTGTTGCCT (site CAGTGGACTAG) | 2.04
CAGTGGACTTGGGTTCTAACCTGTTGCCT (site CATTGGACTAG) | 0.0477
CAGTTGTCTTGGGTTCTAACCTGTTGCCT (site AAGTTGTCTAC) | 0.0187
CAGTTGTCTTGGGTTCTAACCTGTTGCCT (site CAGTTGTCTAG) | 1.75
CATAATTCTTGGGTTCTAACCTGTTGCCT (site CATAATTCTAG) | 0.445
CATAATTCTTGGGTTCTAACCTGTTGCCT (site CATCATTCTAG) | 0
CATAATTCTTGGGTTCTAACCTGTTGCCT (site CATGATTCTAG) | 0.0188
CATAATTCTTGGGTTCTAACCTGTTGCCT (site CATTATTCTAG) | 0.0376
CATAGCGCTTGGGTTCTAACCTGTTGCCT (site AGCTTGCCTCT) | 0.0679
CATAGCGCTTGGGTTCTAACCTGTTGCCT (site CATAGCGCTAG) | 0.605
CATAGCTCTTGGGTTCTAACCTGTTGCCT (site AATAGCTCTAG) | 0.527
CATAGCTCTTGGGTTCTAACCTGTTGCCT (site CATAGCTCTAG) | 1.24
CATAGCTCTTGGGTTCTAACCTGTTGCCT (site GATAGCTCTAG) | 0.176
CATAGCTCTTGGGTTCTAACCTGTTGCCT (site TATAGCTCTAG) | 0.337
CATAGGCCTTGGGTTCTAACCTGTTGCAT (site CATAGACCTAT) | 0.23
CATAGGCCTTGGGTTCTAACCTGTTGCAT (site CATAGCCCTAT) | 0.371
CATAGGCCTTGGGTTCTAACCTGTTGCAT (site CATAGGCCTAT) | 0.811
CATAGGCCTTGGGTTCTAACCTGTTGCAT (site CATAGTCCTAT) | 0.105
CATAGTCCTTGGGTTCTAACCTGTTGCAT (site CATAGACCTAT) | 0.213
CATAGTCCTTGGGTTCTAACCTGTTGCAT (site CATAGCCCTAT) | 0.884
CATAGTCCTTGGGTTCTAACCTGTTGCAT (site CATAGGCCTAT) | 0.0509
CATAGTCCTTGGGTTCTAACCTGTTGCAT (site CATAGTCCTAT) | 0.923

Sequence | recombinant barcode read abundance (log10)
CATCCCTCTTGGGTTCTAACCTGTTGCTT (site CATCCCTCTAA) | 1.51
CATCCCTCTTGGGTTCTAACCTGTTGCTT (site CATCCGTCTAA) | 0.0576
CATCCGTCTTGGGTTCTAACCTGTTGCCT (site CATCCGACTAG) | 0.105
CATCCGTCTTGGGTTCTAACCTGTTGCCT (site CATCCGCCTAG) | 0.0457
CATCCGTCTTGGGTTCTAACCTGTTGCCT (site CATCCGGCTAG) | 0.131
CATCCGTCTTGGGTTCTAACCTGTTGCCT (site CATCCGTCTAG) | 1.21
CATCCTACTTGGGTTCTAACCTGTTGCCG (site CATCCTACTAT) | 0.0476
CATCCTACTTGGGTTCTAACCTGTTGCCG (site CATCCTACTCG) | 0.156
CATCCTACTTGGGTTCTAACCTGTTGCCT (site CATCCTACTAG) | 0.259
CATCCTACTTGGGTTCTAACCTGTTGCCT (site TCCAACTCTGT) | 0.153
CATCGGACTTGGGTTCTAACCTGTTGCTA (site CATCGGACTTA) | 0.834
CATCGGACTTGGGTTCTAACCTGTTGCTA (site CATTGTACTTA) | 0.347
CATCGGGCTTGGGTTCTAACCTGTTGCAG (site CATCGGGCTCT) | 1.43
CATCGGGCTTGGGTTCTAACCTGTTGCAG (site CCTCGGGCTCT) | 0.0832
CATCGGGCTTGGGTTCTAACCTGTTGCAG (site CGTCGGGCTCT) | 0.00527
CATCGGGCTTGGGTTCTAACCTGTTGCAG (site CTTCGGGCTCT) | 0.292
CATGATGCTTGGGTTCTAACCTGTTGCCT (site CAAGATGCTAG) | 0.256
CATGATGCTTGGGTTCTAACCTGTTGCCT (site CACGATGCTAG) | 0.487
CATGATGCTTGGGTTCTAACCTGTTGCCT (site CAGGATGCTAG) | 0.00956
CATGATGCTTGGGTTCTAACCTGTTGCCT (site CATGATGCTAG) | 1.86
CATGCCGCTTGGGTTCTAACCTGTTGCCT (site CATGACACTAG) | 0.226
CATGCCGCTTGGGTTCTAACCTGTTGCCT (site CATGCCGCTAG) | 1.73

Sequence | recombinant barcode read abundance (log10)
CATGGGCCTTGGGTTCTAACCTGTTGCCT (site CATGGGCCTAG) | 0.0279
CATGGGCCTTGGGTTCTAACCTGTTGCCT (site CCTGGGCCTAG) | 0.0246
CATGGGCCTTGGGTTCTAACCTGTTGCCT (site CGTGGGCCTAG) | 0.151
CATGGGCCTTGGGTTCTAACCTGTTGCCT (site CTTGGGCCTAG) | 0.174
CATGGGTCTTGGGTTCTAACCTGTTGCCT (site CATGGGTCTAG) | 1.45
CATGGGTCTTGGGTTCTAACCTGTTGCCT (site CCTGGGTCTAA) | 0.0946
CATTAACCTTGGGTTCTAACCTGTTGCCT (site CATTAACCTAG) | 1.15
CATTAACCTTGGGTTCTAACCTGTTGCCT (site TACTAACCTAG) | 0.208
CATTACTCTTGGGTTCTAACCTGTTGCTT (site CATTACTCTAA) | 0.622
CATTACTCTTGGGTTCTAACCTGTTGCTT (site CTTTCCTCTAA) | 0.032
CATTCACCTTGGGTTCTAACCTGTTGCCT (site AATTCACCTAG) | 0.153
CATTCACCTTGGGTTCTAACCTGTTGCCT (site CATTCACCTAG) | 0.39
CATTCACCTTGGGTTCTAACCTGTTGCCT (site GATTCACCTAG) | 0.0621
CATTCACCTTGGGTTCTAACCTGTTGCCT (site TATTCACCTAG) | 0.111
CATTTAGCTTGGGTTCTAACCTGTTGCGG (site AGGGCGCCTAA) | 0.0282
CATTTAGCTTGGGTTCTAACCTGTTGCGG (site CATTTAGCTCC) | 1.06
CATTTCCCTTGGGTTCTAACCTGTTGCCT (site CATTTCCCTAA) | 0.0164
CATTTCCCTTGGGTTCTAACCTGTTGCCT (site CATTTCCCTAG) | 0.23
CCAAATCCTTGGGTTCTAACCTGTTGCAT (site CCAAATCCTAT) | 0.189
CCAAATCCTTGGGTTCTAACCTGTTGCAT (site TGTCTAGCTCC) | 0.697
